From US20200079765A1, “SUBSTITUTED HETEROARYL PYRROLONES AND SALTS THEREOF AND USE THEREOF AS HERBICIDAL ACTIVE SUBSTANCES” (Bayer CropScience Aktiengesellschaft, priority 2016, published 2020)
One block for each compound: values may come before it.

Legend:
Abutilon theophrasti [1] = experiment: Herbicidal post-emergence action (Experimental Part 2, C); format: in vivo; settings: post-emergence (Part 2), rated visually after about 3 weeks
Method: (§1) Seeds of mono- and dicotyledonous weed plants were placed in plastic pots in sandy loam soil (doubly sown with in each case one species of mono- or dicotyledonous weed plants per pot), covered with soil and cultivated in a greenhouse under controlled growth conditions. 2 to 3 weeks after sowing, the test plants were treated at the one-leaf stage. The compounds of the invention, formulated in the form of wettable powders (WP) or as emulsion concentrates (EC), were applied onto the green parts of the plants as aqueous suspension or emulsion with addition of 0.5% additive at a water application rate of 600 liters per hectare (converted). After the test plants had been kept in the greenhouse under optimum growth conditions for about 3 weeks, the activity of the preparations was rated visually in comparison to untreated controls. For example, 100% activity=the plants have died, 0% activity=like control plants. Tables C1 to C8 below show the effects of selected compounds of the general formula (I) according to Tables I.1 to I.116 on various harmful plants and an application rate corresponding to 1280 g/ha or 320 g/ha, which were obtained by the experimental procedure mentioned above.

Amaranthus retroflexus [2] = experiment: as above; format: in vivo; settings: post-emergence (Part 2), rated visually after about 3 weeks
Method: as §1

Setaria viridis [3] = experiment: as above; format: in vivo; settings: post-emergence (Part 2), application rate 1280 g/ha, rated visually after about 3 weeks
Method: as §1

Stellaria media [4] = experiment: as above; format: in vivo; settings: post-emergence (Part 2), rated visually after about 3 weeks
Method: as §1

Abutilon theophrasti [5] = experiment: Herbicidal pre-emergence action (Experimental Part 2, D); format: in vivo; settings: pre-emergence (Part 2), scored visually after about 3 weeks
Description: (§2) Seeds of mono- and dicotyledonous weed plants were placed in plastic pots in sandy loam soil (doubly sown with in each case one species of mono- or dicotyledonous weed plants per pot) and covered with soil. The compounds of the invention, formulated in the form of wettable powders (WP) or as emulsion concentrates (EC), were then applied onto the surface of the covering soil as aqueous suspension or emulsion with addition of 0.5% additive at a water application rate of 600 liters per hectare (converted). After the treatment, the pots are placed in a greenhouse and kept under good growth conditions for the trial plants. After about 3 weeks, the effect of the preparations was scored visually in comparison with untreated controls as percentages. For example, 100% activity=the plants have died, 0% activity=like control plants. Tables D1 to D8 below show the effects of selected compounds of the general formula (I) according to Tables I.1 to I.116 on various harmful plants and an application rate corresponding to 1280 g/ha or 320 g/ha, which were obtained by the experimental procedure mentioned above.

Amaranthus retroflexus [6] = experiment: as above; format: in vivo; settings: pre-emergence (Part 2), scored visually after about 3 weeks
Description: as §2

Matricaria inodora [7] = experiment: as above; format: in vivo; settings: pre-emergence (Part 2), scored visually after about 3 weeks
Description: as §2

Poa annua [8] = experiment: as above; format: in vivo; settings: pre-emergence (Part 2), scored visually after about 3 weeks
Description: as §2

Setaria viridis [9] = experiment: as above; format: in vivo; settings: pre-emergence (Part 2), scored visually after about 3 weeks
Description: as §2

Stellaria media [10] = experiment: as above; format: in vivo; settings: pre-emergence (Part 2), scored visually after about 3 weeks
Description: as §2

photosystem II (PS II) = target: T1, photosystem II (PS II) (Spinacia oleracea, UniProt P69560); experiment: Measurement of the PS II activity in thylakoid membranes (DCPIP reduction, Experimental Part 3, Table E1); format: biochemical; settings: spinach thylakoid membranes
T1 construct: the chloroplasts were osmotically ruptured and the thylakoid membranes were then obtained by centrifugation; from tissue; host or cells: thylakoid membranes from fresh spinach leaves
Method: Cooled fresh spinach leaves were comminuted and homogenized in 50 mM phosphate buffer, pH 6.8. 10 mM KCl, 0.34 M sucrose (sucrose buffer) (blender, 1 g of plant material/ml). The homogenate was subsequently filtered through 4 layers of Miracloth and the chloroplasts were isolated by centrifugation, i.e. 10 min of centrifugation at 4400×g (4° C.). The sediment was suspended in 25 ml of sucrose buffer and re-centrifuged for 10 min at 4400×g (4° C.). The sediment was then suspended in 40 ml of 50 mM phosphate buffer, pH 6.8, 10 mM KCl, without sucrose. In this step, the chloroplasts were osmotically ruptured and the thylakoid membranes were then obtained by centrifugation (10 min, 4400×g, 4° C.). The membrane sediment was finally suspended in about 20 ml of 50 mM phosphate buffer, pH 6.8, 10 mM KCl. Following protein determination and activity determination, the membrane suspension was divided into aliquots and frozen in liquid nitrogen. The aliquots were stored at −80° C. Under these conditions, the photosystem II preparation was storage stable for at least three months. The activity determination of photosystem II (PS II) was then carried out using the following test principle: The electron transfer from PS II to an artificial electron acceptor, 2,6-dichlorophenolindophenol (DCPIP), was measured with exposure to light. The concentration of the blue oxidized form of DCPIP was determined spectrophotometrically at wavelength λ=595 nm. […] The activity determination was carried out in microtiter plates (96 cavities) in a reaction volume of 200 μl. Here, 155 μl of dilute membrane suspension were initially charged in 50 mM of phosphate buffer, pH 6.8, 10 mM KCl. Depending on the activity of the PS II preparation, the dilution was adjusted such that the measurement of the decrease in absorption (λ=595 nm) was linear for at least 10 min. In each case 5 μl solution of the test compounds of a concentration of 100 μM in DMSO were added to the enzyme suspension; controls contained 5 μl DMSO; the final concentration of DMSO in the reaction batch was thus 2.5% (v/v); this concentration had no adverse effect on the enzymatic activity. On each microtiter plate, a known PS II inhibitor, for example metribuzin, was used as standard, which allowed the quality of the PS II test to be assessed. The reaction was started by addition of 40 μl DCPIP solution (600 μM in distilled water); the final concentration of DCPIP was 120 μM. Measurement of absorption was carried out over a period of 10 min at 22° C. and with exposure to light. Using metribuzin as comparative substance, the results for the efficacy of the compounds of the general formula (I) at 100 μM are stated in the table below using the following classification: ++++ (inhibition≥90%), +++ (90%>inhibition≥70%), ++ (70%>inhibition≥50%), + (50%>inhibition≥30%).
Effects of selected compounds of the general formula (I) according to the following table E1: […]

Matricaria inodora [11] = experiment: Herbicidal post-emergence action (Experimental Part 2, C); format: in vivo; settings: post-emergence (Part 2), rated visually after about 3 weeks
Method: as §1

Poa annua [12] = experiment: as above; format: in vivo; settings: post-emergence (Part 2), application rate 320 g/ha, rated visually after about 3 weeks
Method: as §1

Lolium rigidum = experiment: Herbicidal pre-emergence action (Experimental Part 2, D); format: in vivo; settings: pre-emergence (Part 2), application rate 1280 g/ha, scored visually after about 3 weeks
Description: as §2

SMILES: CC1=CC(O)N(c2onc(C(C)(C)C)c2C)C1=O (stereo not shown) [I.2-300]
Abutilon theophrasti, herbicidal activity (Abutilon theophrasti [1]; application rate 1280 g/ha): 100%
Amaranthus retroflexus, herbicidal activity (Amaranthus retroflexus [2]; application rate 320 g/ha): 100%
Setaria viridis, herbicidal activity (Setaria viridis [3]): 90%
Stellaria media, herbicidal activity (Stellaria media [4]; application rate 1280 g/ha): 100%
Abutilon theophrasti, herbicidal activity (Abutilon theophrasti [5]; application rate 320 g/ha): 90%
Amaranthus retroflexus, herbicidal activity (Amaranthus retroflexus [6]; application rate 320 g/ha): 100%
Matricaria inodora, herbicidal activity (Matricaria inodora [7]; application rate 1280 g/ha): 90%
Poa Annua, herbicidal activity (Poa annua [8]; application rate 1280 g/ha): 90%
Setaria viridis, herbicidal activity (Setaria viridis [9]; application rate 320 g/ha): 90%
Stellaria media, herbicidal activity (Stellaria media [10]; application rate 320 g/ha): 90%
Effect (inhibition of PS II activity) (photosystem II (PS II)): ++++ (inhibition≥90%)

SMILES: CC1=CC(O)N(c2cc(-c3ccccc3)ns2)C1=O (stereo not shown) [I.2-86]
Effect (inhibition of PS II activity) (photosystem II (PS II)): ++++ (inhibition≥90%)

SMILES: CC1=CC(=O)N(c2cscn2)C1O (stereo not shown) [I.1-91]
Abutilon theophrasti, herbicidal activity (Abutilon theophrasti [1]; application rate 1280 g/ha): 100%
Amaranthus retroflexus, herbicidal activity (Amaranthus retroflexus [2]; application rate 320 g/ha): 100%
Matricaria inodora, herbicidal activity (Matricaria inodora [11]; application rate 1280 g/ha): 100%
Setaria viridis, herbicidal activity (Setaria viridis [3]): 100%
Stellaria media, herbicidal activity (Stellaria media [4]; application rate 1280 g/ha): 100%
Abutilon theophrasti, herbicidal activity (Abutilon theophrasti [5]; application rate 1280 g/ha): 100%
Amaranthus retroflexus, herbicidal activity (Amaranthus retroflexus [6]; application rate 320 g/ha): 100%
Matricaria inodora, herbicidal activity (Matricaria inodora [7]; application rate 1280 g/ha): 90%

Continued, in another order:

Effect (inhibition of PS II activity) (photosystem II (PS II)): ++++ (inhibition≥90%)
SMILES: CC1=CC(=O)N(c2cc(C)ns2)C1O (stereo not shown) [I.1-72]
Amaranthus retroflexus, herbicidal activity (Amaranthus retroflexus [2]; application rate 320 g/ha): 100%
Matricaria inodora, herbicidal activity (Matricaria inodora [11]; application rate 1280 g/ha): 100%
Amaranthus retroflexus, herbicidal activity (Amaranthus retroflexus [6]; application rate 1280 g/ha): 90%
Stellaria media, herbicidal activity (Stellaria media [10]; application rate 1280 g/ha): 90%

Effect (inhibition of PS II activity) (photosystem II (PS II)): +++ (90%>inhibition≥70%)
SMILES: CC(=O)OC1C(C)=CC(=O)N1c1cc(C(F)(F)F)c(Cl)cn1 (stereo not shown) [I.3-451]
Abutilon theophrasti, herbicidal activity (Abutilon theophrasti [1]; application rate 320 g/ha): 100%
Amaranthus retroflexus, herbicidal activity (Amaranthus retroflexus [2]; application rate 1280 g/ha): 100%
Matricaria inodora, herbicidal activity (Matricaria inodora [11]; application rate 320 g/ha): 90%
Poa Annua, herbicidal activity (Poa annua [12]): 100%
Stellaria media, herbicidal activity (Stellaria media [4]; application rate 320 g/ha): 100%
Lolium rigidum, herbicidal activity (Lolium rigidum): 90%
Poa Annua, herbicidal activity (Poa annua [8]; application rate 320 g/ha): 90%
Setaria viridis, herbicidal activity (Setaria viridis [9]; application rate 1280 g/ha): 100%
Stellaria media, herbicidal activity (Stellaria media [10]; application rate 320 g/ha): 100%

Effect (inhibition of PS II activity) (photosystem II (PS II)): ++++ (inhibition≥90%)
SMILES: CC1=CC(=O)N(c2cc(-c3ccccc3)ns2)C1O (stereo not shown) [I.1-86]

Effect (inhibition of PS II activity) (photosystem II (PS II)): ++++ (inhibition≥90%)
SMILES: CC1=CC(=O)N(c2cc(C(C)(C)C)no2)C1O (stereo not shown) [I.1-290, 5-Hydroxy-4-methyl-1-(3-tert-butyl-1,2-isoxazol-5-yl)-1,5-dihydro-2H-pyrrol-2-one]
Abutilon theophrasti, herbicidal activity (Abutilon theophrasti [1]; application rate 320 g/ha): 100%
Matricaria inodora, herbicidal activity (Matricaria inodora [11]; application rate 1280 g/ha): 100%
Stellaria media, herbicidal activity (Stellaria media [4]; application rate 1280 g/ha): 100%
Abutilon theophrasti, herbicidal activity (Abutilon theophrasti [5]; application rate 1280 g/ha): 90%
Amaranthus retroflexus, herbicidal activity (Amaranthus retroflexus [6]; application rate 1280 g/ha): 100%
Matricaria inodora, herbicidal activity (Matricaria inodora [7]; application rate 320 g/ha): 100%
Poa Annua, herbicidal activity (Poa annua [8]; application rate 320 g/ha): 90%
Setaria viridis, herbicidal activity (Setaria viridis [9]; application rate 1280 g/ha): 90%
Stellaria media, herbicidal activity (Stellaria media [10]; application rate 320 g/ha): 100%
